The values that follow come from US20230203043A1, “NOVEL IMIDAZOPYRAZINE DERIVATIVES” (Hoffmann-La Roche Inc., priority 2020, published 2023).

Counter-ions that a name gives are not always drawn.

In the first test the test system is Acinetobacter baumannii ATCC17961. As to the kind of experiment: Antimicrobial susceptibility testing: 90% growth inhibitory concentration (IC90) determination in Iso-Sensitest broth, OD600 growth. The format is cell-based. As to conditions: Acinetobacter baumannii, ATCC17961, 16 h, read-out: A. baumannii ATCC 17961 IC90 (uM), strain ATCC 17961, OD600 growth over 16 h. Summed up: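 Growth inhibition is calculated during the logarithmic phase from OD600 readings taken every 20 minutes across 16 h at 35±2° C. Bacteria at ~5×10^(5) CFU/ml face twofold dilution series (e.g. 50 to 0.097 μM final).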
Usually IC90 stands for the concentration at which the effect reaches the 90% level. With `CN(C)CCNC(=O)CNC(=O)c1ccc(Nc2nccn3c(-c4c[nH]nc4C(F)(F)F)cnc23)cc1Cl` [Example 165, 2-chloro-N-[2-[2-(dimethylamino)ethylamino]-2-oxoethyl]-4-[[3-[3-(trifluoromethyl)-1H-pyrazol-4-yl]imidazo[1,2-a]pyrazin-8-yl]amino]benzamide formate], the IC90 was 2.52 µM.

With `Cc1cc(Nc2nccn3c(-c4c[nH]nc4C(F)(F)F)cnc23)ccc1C(=O)N1CCN(C(=O)NCCN)CC1` [Example 428, N-(2-aminoethyl)-4-[2-methyl-4-[[3-[3-(trifluoromethyl)-1H-pyrazol-4-yl]imidazo[1,2-a]pyrazin-8-yl]amino]benzoyl]piperazine-1-carboxamide formate], the IC90 turned out to be 0.465 µM.

In the case of `Cc1cc(Nc2nccn3c(-c4c[nH]nc4C(F)(F)F)cnc23)ccc1C(=O)NCCNC(=O)[C@@H]1C[C@@H](O)CN1` [Example 444, formic acid; (2S,4R)-4-hydroxy-N-[2-[[2-methyl-4-[[3-[3-(trifluoromethyl)-1H-pyrazol-4-yl]imidazo[1,2-a]pyrazin-8-yl]amino]benzoyl]amino]ethyl]pyrrolidine-2-carboxamide], the IC90 was 1.43 µM.

On to `Cc1cc(Nc2nccn3c(-c4cn(CC#N)nc4C(F)(F)F)cnc23)ccc1C(=O)N1CCN(C(=O)[C@@H]2C[C@](C)(O)CN2)CC1` [Example 424, formic acid; 2-[4-[8-[4-[4-[(2S,4S)-4-hydroxy-4-methylpyrrolidine-2-carbonyl]piperazine-1-carbonyl]-3-methylanilino]imidazo[1,2-a]pyrazin-3-yl]-3-(trifluoromethyl)pyrazol-1-yl]acetonitrile], for which the IC90 was found to be 0.685 µM.

Consider `C[C@@H](NC(=O)c1ccc(Nc2nccn3c(-c4c[nH]nc4C(F)(F)F)cnc23)cc1Cl)C(=O)NCCN` [Example 95, N-[(2R)-1-(2-aminoethylamino)-1-oxopropan-2-yl]-2-chloro-4-[[3-[3-(trifluoromethyl)-1H-pyrazol-4-yl]imidazo[1,2-a]pyrazin-8-yl]amino]benzamide formate], for which the 90% effect concentration (IC90) is 1.53 µM.

`C#CCn1cc(-c2cnc3c(Nc4ccc(C(=O)NCCCNCCCCNCCCN)c(CC)c4)nccn23)c(C(F)(F)F)n1` [Example 155, N-[3-[4-(3-aminopropylamino)butylamino]propyl]-2-ethyl-4-[[3-[1-prop-2-ynyl-3-(trifluoromethyl)pyrazol-4-yl]imidazo[1,2-a]pyrazin-8-yl]amino]benzamide trifluoroacetate]: the IC90 stood at 0.585 µM.

`N#CCn1cc(-c2cnc3c(Nc4ccc(C(=O)NCC(=O)N5CC(N)C5)c(Cl)c4)nccn23)c(C(F)(F)F)n1` [Example 713, N-[2-(3-aminoazetidin-1-yl)-2-oxo-ethyl]-2-chloro-4-[[3-[1-(cyanomethyl)-3-(trifluoromethyl)pyrazol-4-yl]imidazo[1,2-a]pyrazin-8-yl]amino]benzamide formate]: the concentration for an effect of 90% (IC90) amounted to 0.417 µM.

For the molecule `Cc1cc(Nc2nccn3c(-c4cn(C)nc4C(F)(F)F)cnc23)ccc1C(=O)N1CCN(C(=O)C2(O)CCNCC2)CC1` [Example 471, formic acid; [4-(4-hydroxypiperidine-4-carbonyl)piperazin-1-yl]-[2-methyl-4-[[3-[1-methyl-3-(trifluoromethyl)pyrazol-4-yl]imidazo[1,2-a]pyrazin-8-yl]amino]phenyl]methanone], the IC90 worked out at 1.1 µM.

The test is the same for the next values; noted with them: Acinetobacter baumannii, ATCC17961, 16 h, strain ATCC 17961, OD600 growth over 16 h, read-out: A. baumannii ATCC 17961 IC90.
Consider `CCc1cc(Nc2nccn3c(-c4cn(Cc5ccncn5)nc4C(F)(F)F)cnc23)ccc1C(=O)NC` [Example 282, 2-ethyl-N-methyl-4-[[3-[1-(pyrimidin-4-ylmethyl)-3-(trifluoromethyl)pyrazol-4-yl]imidazo[1,2-a]pyrazin-8-yl]amino]benzamide], for which the IC90 is 0.701 µM.

`N#CCn1cc(-c2cnc3c(Nc4ccc(C(=O)NCC(=O)N5CC[C@H](N)C5)c(Cl)c4)nccn23)c(C(F)(F)F)n1` [Example 656, N-[2-[(3S)-3-aminopyrrolidin-1-yl]-2-oxo-ethyl]-2-chloro-4-[[3-[1-(cyanomethyl)-3-(trifluoromethyl)pyrazol-4-yl]imidazo[1,2-a]pyrazin-8-yl]amino] benzamide formate]: the IC90 stood at 0.266 µM.

As for `CCc1cc(Nc2nccn3c(-c4cn(CC#N)nc4C(F)(F)F)cnc23)ccc1C(=O)NCCNC(=O)C1CCNCC1` [Example 486, N-(2-(4-((3-(1-(cyanomethyl)-3-(trifluoromethyl)-1H-pyrazol-4-yl)imidazo[1,2-a]pyrazin-8-yl)amino)-2-ethylbenzamido)ethyl)piperidine-4-carboxamide formate], the IC90 was found to be 0.208 µM.

Regarding `CCc1cc(Nc2nccn3c(-c4cn(CC#N)nc4C(F)F)cnc23)ccc1C(=O)N1CCN(C(=O)C2CCNCC2)CC1` [Example 792, 2-(3-(difluoromethyl)-4-(8-((3-ethyl-4-(4-(piperidine-4-carbonyl)piperazine-1-carbonyl)phenyl)amino)imidazo[1,2-a]pyrazin-3-yl)-1H-pyrazol-1-yl)acetonitrile], the IC90 was 1.92 µM.

On to `N#CCn1cc(-c2cnc3c(Nc4ccc(C(=O)N5CC[C@@H](O)C5)c(Cl)c4)nccn23)c(C(F)(F)F)n1` [Example 244, 2-[4-[8-[3-chloro-4-[(3R)-3-hydroxypyrrolidine-1-carbonyl]anilino]imidazo[1,2-a]pyrazin-3-yl]-3-(trifluoromethyl)pyrazol-1-yl]acetonitrile], for which the IC90 worked out at 0.411 µM.

As to `CCc1cc(Nc2nccn3c(-c4cn(CCN5CCCC5)nc4C(F)(F)F)cnc23)ccc1C(=O)NCCOCCN` [Example 269, N-[2-(2-aminoethoxy)ethyl]-2-ethyl-4-[[3-[1-(2-pyrrolidin-1-ylethyl)-3-(trifluoromethyl)pyrazol-4-yl]imidazo[1,2-a]pyrazin-8-yl]amino]benzamide], the IC90 is 1.39 µM.

As to `CCc1cc(Nc2nccn3c(-c4cn(CC(F)F)nc4C(F)F)cnc23)ccc1C(=O)N1CCN(C(=O)[C@H]2C[C@H](N)C2)CC1` [Example 743, (4-((1r,3r)-3-aminocyclobutane-1-carbonyl)piperazin-1-yl)(4-((3-(1-(2,2-difluoroethyl)-3-(difluoromethyl)-1H-pyrazol-4-yl)imidazo[1,2-a]pyrazin-8-yl)amino)-2-ethylphenyl) methanone], the IC90 is 0.532 µM.

`CCc1cc(Nc2nccn3c(-c4c[nH]nc4C(F)(F)F)cnc23)ccc1C(=O)NCCCCCN` [Example 319, N-(5-aminopentyl)-2-ethyl-4-[[3-[3-(trifluoromethyl)-1H-pyrazol-4-yl]imidazo[1,2-a]pyrazin-8-yl]amino]benzamide hydrochloride]: the IC90 was found to be 0.438 µM.

For the molecule `O=C(NC1CCN(C(=O)c2ccc(Nc3nccn4c(-c5c[nH]nc5C(F)(F)F)cnc34)cc2Cl)CC1)[C@@H]1C[C@@H](O)CN1` [Example 154, (2S,4R)-N-[1-[2-chloro-4-[[3-[3-(trifluoromethyl)-1H-pyrazol-4-yl]imidazo[1,2-a]pyrazin-8-yl]amino]benzoyl]piperidin-4-yl]-4-hydroxypyrrolidine-2-carboxamide], the IC90 is 0.391 µM.

Take `Cc1cc(Nc2nccn3c(-c4cn(CC#N)nc4C(F)(F)F)cnc23)cc(F)c1C(=O)N1CCNCC1` [Example 77, 2-[4-[8-[3-fluoro-5-methyl-4-(piperazine-1-carbonyl)anilino]imidazo[1,2-a]pyrazin-3-yl]-3-(trifluoromethyl)pyrazol-1-yl]acetonitrile]: the IC90 was 3.29 µM.

In the case of `CCc1cc(Nc2nccn3c(-c4cn(C(F)F)nc4C(F)(F)F)cnc23)ccc1C(=O)NCCNC(=O)[C@@H]1CCCN1` [Example 36, (2S)-N-[2-[[4-[[3-[1-(difluoromethyl)-3-(trifluoromethyl)pyrazol-4-yl]imidazo[1,2-a]pyrazin-8-yl]amino]-2-ethylbenzoyl)amino]ethyl] pyrrolidine-2-carboxamide], the IC90 stood at 0.348 µM.

On to `O=C(N[C@H]1CCN(C(=O)[C@@H]2C[C@@H](O)CN2)C1)c1ccc(Nc2nccn3c(-c4c[nH]nc4C(F)(F)F)cnc23)cc1Cl` [Example 313, 2-chloro-N-[(3S)-1-[(2S,4R)-4-hydroxypyrrolidine-2-carbonyl]pyrrolidin-3-yl]-4-[[3-[3-(trifluoromethyl)-1H-pyrazol-4-yl]imidazo[1,2-a]pyrazin-8-yl]amino]benzamide], for which the IC90 turned out to be 0.995 µM.

For the molecule `O=C(CNCCNC(=O)c1ccc(Nc2nccn3c(-c4cn(CC(F)F)nc4C(F)(F)F)cnc23)cc1Cl)NC1CNC1` [Example 821, N-(2-((2-(azetidin-3-ylamino)-2-oxoethyl)amino)ethyl)-2-chloro-4-(3-(1-(2,2-difluoroethyl)-3-(trifluoromethyl)-1H-pyrazol-4-yl)imidazo[1,2-a]pyrazin-8-yl)amino) benzamide formate], the IC90 worked out at 0.16 µM.

In the case of `C#CCNCCCNC(=O)c1c(C)cc(Nc2nccn3c(-c4cn(CC#C)nc4C(F)(F)F)cnc23)cc1F` [Example 72, 2-fluoro-6-methyl-N-[3-(prop-2-ynylamino)propyl]-4-[[3-[1-prop-2-ynyl-3-(trifluoromethyl)pyrazol-4-yl]imidazo[1,2-a]pyrazin-8-yl]amino]benzamide], the IC90 is 0.599 µM.

Still in this test, the particulars now being: strain ATCC 17961, OD600 growth over 16 h, read-out: A. baumannii ATCC 17961 IC90.
With `Cc1cc(Nc2nccn3c(-c4c[nH]nc4C(F)(F)F)cnc23)ccc1C(=O)N1CCN(C(=O)N[C@@H]2CNC[C@H]2O)CC1` [Example 457, formic acid, N-[(3R,4R)-4-hydroxypyrrolidin-3-yl]-4-[2-methyl-4-[[3-[3-(trifluoromethyl)-1H-pyrazol-4-yl]imidazo[1,2-a]pyrazin-8-yl]amino]benzoyl]piperazine-1-carboxamide], the IC90 turned out to be 0.442 µM.

As to `C=CCn1cc(-c2cnc3c(Nc4ccc(C(=O)NCCOCC(C)(C)N)c(CC)c4)nccn23)c(C(F)(F)F)n1` [Example 45, N-[2-(2-amino-2-methylpropoxy)ethyl]-2-ethyl-4-[[3-[1-prop-2-enyl-3-(trifluoromethyl)pyrazol-4-yl]imidazo[1,2-a]pyrazin-8-yl]amino] benzamide], the IC90 is 0.074 µM.
